No end group written: not given here.
Key:
[1] = test system: murine calvaria; test: Calvarial bone resorption assay; format: cell-based, mouse; conditions: for osteolytic activity of peptides in the calvarial assay: graded concentrations, three separate experiments
[2] = test system: human osteoblast-like cell line MG63; test: Osteoblast proliferation; format: cell-based; conditions: subconfluent MG63, 24 h, DMEM 2% FCS, [3H]thymidine last 6 h
[3] = test system: MG63 cells

In the case of “1–58: synthetic Mt cpn10 peptide, residues 1–58 (MAKVNIKPLEDKILVQANEAETTTASGLVIPDTAKEKPQEGTVVAVGPGRWDEDGEKR; also: dimer; UniProt P9WPE5 1-58, looked up, fragment)”, the “osteolytic activity of peptides in the calvarial assay” value [1] is reported as “inactive”.

In the case of “46–99: synthetic Mt cpn10 peptide, residues 46–99 (VGPGRWDEDGEKRIPLDVAEGDTVIYSKYGGTEIKYNGEEYLILSARDVLAVVS; UniProt P9WPE5 46-99, looked up, fragment)”, the “osteolytic activity of peptides in the calvarial assay” value [1] is reported as “inactive”.

For “51–99: synthetic Mt cpn10 peptide, residues 51–99 (WDEDGEKRIPLDVAEGDTVIYSKYGGTEIKYNGEEYLILSARDVLAVVS; UniProt P9WPE5 51-99, looked up, fragment)”, the “osteolytic activity of peptides in the calvarial assay” value [1] was “inactive”.

For “54–99: synthetic Mt cpn10 peptide, residues 54–99 (DGEKRIPLDVAEGDTVIYSKYGGTEIKYNGEEYLILSARDVLAVVS; UniProt P9WPE5 54-99, looked up, fragment)”, the “osteolytic activity of peptides in the calvarial assay” value [1] was “inactive”.

In the case of “59–99: synthetic Mt cpn10 peptide, residues 59–99 (IPLDVAEGDTVIYSKYGGTEIKYNGEEYLILSARDVLAVVS; UniProt P9WPE5 59-99, looked up, fragment)”, the “osteolytic activity of peptides in the calvarial assay” value [1] is reported as “inactive”.

For “65–99: synthetic Mt cpn10 peptide, residues 65–99 (EGDTVIYSKYGGTEIKYNGEEYLILSARDVLAVVS; UniProt P9WPE5 65-99, looked up, fragment)”, the “osteolytic activity of peptides in the calvarial assay” value [1] was “reproducible osteolytic activity”.

GGIVLTGSAAA [GroES residues 23–33] was tested, and the “osteolytic activity of peptides in the calvarial assay” value [1] was “osteolytic activity”.

TTTASGLVIPDTAKE [21–35] was tested, and the “osteolytic activity of peptides in the calvarial assay” value [1] was “osteolytic activity”.

In the case of “calcitonin (CGNLSTCMLGTYTQDFNKFHTFPQTAIGVGAP; ends and bridges not checked; cysteine pairing not given here; UniProt P01258 85-116, looked up) [reference compound]”, the “effect on r-Mt cpn10-induced bone resorption” value ([1]; calcitonin at 10 ng/ml, results not shown) is reported as “blocked”.

For “lipoarabinomannan [Mt LAM, reference compound]”, the osteolytic activity ([1]; added at a concentration of 1 μg/ml) was “no osteolytic activity”.

In the case of polymyxin B [reference compound], the “effect of addition on bone resorbing activity of r-Mt cpn10” value [1] is reported as “no effect”, the “effect of addition on bone resorbing activity of the Mt sonicate” value [1] is reported as “no effect” and the “effect on osteolytic activity of peptides 26–99 and 65–99” value [1] is reported as “no inhibitory effects”.

B1: r-Mt cpn10: recombinant Mycobacterium tuberculosis chaperonin 10 expressed in Escherichia coli, purified by reversed-phase HPLC to >97% purity (protein, UniProt P9WPE5 2-100, looked up)
Co-chaperonin GroES: AKVNIKPLEDKILVQANEAETTTASGLVIPDTAKEKPQEGTVVAVGPGRWDEDGEKRIPLDVAEGDTVIYSKYGGTEIKYNGEEYLILSARDVLAVVSK
modifications: recombinant, expressed in E. coli
In the case of B1, the “concentration at which osteolytic activity (calcium release) was noted” value [1] is reported as 1 ng/mL, the “concentration at which osteolytic activity was noted, molar equivalent” value [1] is reported as 100 pmol and the “stimulation of bone resorption, measured as calcium release into the tissue culture medium” value [1] is reported as “dose-dependent stimulation of calcium release”. For the same molecule, the “concentrations causing significant inhibition of cell proliferation” value [2] was no less than 1 nM and the “cytotoxicity (lactate dehydrogenase release)” value [3] was “not due to cytotoxicity”.
